According to article PMC4450297, “Screening Active Compounds from Garcinia Species Native to China Reveals Novel Compounds Targeting the STAT/JAK Signaling Pathway” (BioMed Research International, 2015):

Tests used:
Experiment in all cases: Cell panel screen (CellTiter-Glo)
Assay type in all cases: cell-based, human
T98G = T98G (Brain), 20 micromolar, 72 hrs
Method: (§1) All cells were obtained from the cell bank of the American Type Culture Collection (ATCC) and cultured in the supplier's recommended media supplemented with 10% FBS. The cell panel screen was measured using the CellTiter-Glo assay (Promega, Madison, WI) following a standard protocol. Briefly, cancer cells were seeded in 96-well plates and cultured overnight at 37°C with or without 5% CO2 in an incubator. Each compound was dissolved with limited DMSO and diluted to a certain concentration with culture medium and then added to the corresponding well of the cell plate. The final concentration of compound was 20 μM. The control cells (without treatment) received the same amount of DMSO and were incubated under the same conditions. After 72 h cultivation, 100 μL of the CellTiter-Glo reagent was added directly to each well for 10-minute incubation. The plate was then read on a FlexStation 3 microplate luminometer (Molecular Devices, USA) to monitor the luminescence signal generated by the luciferase-catalyzed reaction of luciferin and ATP. The percent of growth inhibition was calculated using the following formula: (untreated cells − treated cells)/(untreated cells − background without cells) ∗ 100.

A704 = A704 (Kidney), 20 micromolar, 72 hrs
Method: as §1

NCI-H1623 = NCI-H1623 (Lung), 20 micromolar, 72 hrs
Method: as §1

NCI-H524 = NCI-H524 (Lung), 20 micromolar, 72 hrs
Method: as §1

J82 = J82 (Urinary bladder), 20 micromolar, 72 hrs
Method: as §1

HT-1197 = HT-1197 (Urinary bladder), 20 micromolar, 72 hrs
Method: as §1

NCI-H2405 = NCI-H2405 (Lung), 20 micromolar, 72 hrs
Method: as §1

RL95 = RL95 (Uterus), 20 micromolar, 72 hrs
Method: as §1

C3A = C3A (Liver), 20 micromolar, 72 hrs
Method: as §1

HGC-27 = HGC-27 (Stomach), 20 micromolar, 72 hrs
Method: as §1

BT-474 = BT-474 (Breast), 20 micromolar, 72 hrs
Method: as §1

BT-549 = BT-549 (Breast), 20 micromolar, 72 hrs
Method: as §1

ChaGo-K-1 = ChaGo-K-1 (Lung), 20 micromolar, 72 hrs
Method: as §1

NCI-H2347 = NCI-H2347 (Lung), 20 micromolar, 72 hrs
Method: as §1

M059J = M059J (Brain), 20 micromolar, 72 hrs
Method: as §1

SW13 = SW13 (Adrenal gland), 20 micromolar, 72 hrs
Method: as §1

HCC1937 = HCC1937 (Breast), 20 micromolar, 72 hrs
Method: as §1

C8166 = C8166 (Leukemia), 20 micromolar, 72 hrs
Method: as §1

HCC1599 = HCC1599 (Breast), 20 micromolar, 72 hrs
Method: as §1

CCF-STTG1 = CCF-STTG1 (Brain), 20 micromolar, 72 hrs
Method: as §1

Bel-7402 = Bel-7402 (Liver), 20 micromolar, 72 hrs
Method: as §1

HCC1395 = HCC1395 (Breast), 20 micromolar, 72 hrs
Method: as §1

NCI-H28 = NCI-H28 (Lung), 20 micromolar, 72 hrs
Method: as §1

ZR-75-30 = ZR-75-30 (Breast), 20 micromolar, 72 hrs
Method: as §1

MSTO-211-H = MSTO-211-H (Lung), 20 micromolar, 72 hrs
Method: as §1

HEC-1-A = HEC-1-A (Uterus), 20 micromolar, 72 hrs
Method: as §1

HPAF-II = HPAF-II (Pancreas), 20 micromolar, 72 hrs
Method: as §1

T47D = T47D (Breast), 20 micromolar, 72 hrs
Method: as §1

A498 = A498 (listed under Lung), 20 micromolar, 72 hrs
Method: as §1

HCC1569 = HCC1569 (Breast), 20 micromolar, 72 hrs
Method: as §1

NCI-H1770 = NCI-H1770 (Lung), 20 micromolar, 72 hrs
Method: as §1

TCCSUP = TCCSUP (Urinary bladder), 20 micromolar, 72 hrs
Method: as §1

NCI-H1694 = NCI-H1694 (Lung), 20 micromolar, 72 hrs
Method: as §1

Panc 03.27 = Panc 03.27 (Pancreas), 20 micromolar, 72 hrs
Method: as §1

CW-2 = CW-2 (Colon), 20 micromolar, 72 hrs
Method: as §1

Colo 205 = settings: Colo 205, 20 micromolar, 72 hrs
Method: as §1

CC1(C)C=Cc2c(cc(O)c3c(=O)c4cc5c(c(O)c4oc23)OC(C)(C)C=C5)O1 [Go-16]
Percent Inhibition (T98G): 29%
Percent Inhibition (A704): 17%
Percent Inhibition (NCI-H1623): 33%
Percent Inhibition (NCI-H524): -35%
Percent Inhibition (J82): 23%
Percent Inhibition (HT-1197): 35%
Percent Inhibition (NCI-H2405): 27%
Percent Inhibition (RL95): -8%
Percent Inhibition (C3A): 22%
Percent Inhibition (HGC-27): 28%
Percent Inhibition (BT-474): -6%
Percent Inhibition (BT-549): -5%
Percent Inhibition (ChaGo-K-1): 9%
Percent Inhibition (NCI-H2347): -8%
Percent Inhibition (M059J): 31%
Percent Inhibition (SW13): 6%
Percent Inhibition (HCC1937): 25%
Percent Inhibition (C8166): 13%
Percent Inhibition (HCC1599): 41%
Percent Inhibition (CCF-STTG1): 22%
Percent Inhibition (Bel-7402): 15%
Percent Inhibition (HCC1395): 68%
Percent Inhibition (NCI-H28): 9%
Percent Inhibition (ZR-75-30): 47%
Percent Inhibition (MSTO-211-H): 34%
Percent Inhibition (HEC-1-A): 11%
Percent Inhibition (HPAF-II): 15%
Percent Inhibition (T47D): 20%
Percent Inhibition (A498): 12%
Percent Inhibition (HCC1569): 11%
Percent Inhibition (NCI-H1770): 25%
Percent Inhibition (TCCSUP): 44%
Percent Inhibition (NCI-H1694): 5%
Percent Inhibition (Panc 03.27): 20%
Percent Inhibition (CW-2): 17%
Percent Inhibition (Colo 205): 4%

COc1cc(O)c2c(=O)c3c(CC=C(C)C)cc(O)c(O)c3oc2c1CC=C(C)CCC=C(C)C [Go-23]
Percent Inhibition (T98G): 98%
Percent Inhibition (A704): 96%
Percent Inhibition (NCI-H1623): 92%
Percent Inhibition (NCI-H524): 98%
Percent Inhibition (J82): 97%
Percent Inhibition (HT-1197): 96%
Percent Inhibition (NCI-H2405): 98%
Percent Inhibition (RL95): 97%
Percent Inhibition (C3A): 77%
Percent Inhibition (HGC-27): 97%
Percent Inhibition (BT-474): 70%
Percent Inhibition (BT-549): 96%
Percent Inhibition (ChaGo-K-1): 94%
Percent Inhibition (NCI-H2347): 68%
Percent Inhibition (M059J): 93%
Percent Inhibition (SW13): 96%
Percent Inhibition (HCC1937): 96%
Percent Inhibition (C8166): 95%
Percent Inhibition (HCC1599): 98%
Percent Inhibition (CCF-STTG1): 87%
Percent Inhibition (Bel-7402): 96%
Percent Inhibition (HCC1395): 97%
Percent Inhibition (NCI-H28): 82%
Percent Inhibition (ZR-75-30): 95%
Percent Inhibition (MSTO-211-H): 95%
Percent Inhibition (HEC-1-A): 76%
Percent Inhibition (HPAF-II): 82%
Percent Inhibition (T47D): 94%
Percent Inhibition (A498): 94%
Percent Inhibition (HCC1569): 97%
Percent Inhibition (NCI-H1770): 98%
Percent Inhibition (TCCSUP): 93%
Percent Inhibition (NCI-H1694): 98%
Percent Inhibition (Panc 03.27): 92%
Percent Inhibition (CW-2): 97%
Percent Inhibition (Colo 205): 96%

CC(C)=CCC/C(C)=C/Cc1c(O)c(CC=C(C)C)c2c(c1O)C(=O)C1=C[C@@H]3C[C@H]4C(C)(C)O[C@@](C/C=C(/C)C(=O)O)(C3=O)[C@@]14O2 [GB16]
Percent Inhibition (T98G): 99%
Percent Inhibition (A704): 99%
Percent Inhibition (NCI-H1623): 99%
Percent Inhibition (NCI-H524): 98%
Percent Inhibition (J82): 99%
Percent Inhibition (HT-1197): 99%
Percent Inhibition (NCI-H2405): 99%
Percent Inhibition (RL95): 99%
Percent Inhibition (C3A): 99%
Percent Inhibition (HGC-27): 100%
Percent Inhibition (BT-474): 99%
Percent Inhibition (BT-549): 99%
Percent Inhibition (ChaGo-K-1): 99%
Percent Inhibition (NCI-H2347): 98%
Percent Inhibition (M059J): 99%
Percent Inhibition (SW13): 99%
Percent Inhibition (HCC1937): 100%
Percent Inhibition (C8166): 100%
Percent Inhibition (HCC1599): 100%
Percent Inhibition (CCF-STTG1): 99%
Percent Inhibition (Bel-7402): 99%
Percent Inhibition (HCC1395): 99%
Percent Inhibition (NCI-H28): 99%
Percent Inhibition (ZR-75-30): 100%
Percent Inhibition (MSTO-211-H): 100%
Percent Inhibition (HEC-1-A): 99%
Percent Inhibition (HPAF-II): 98%
Percent Inhibition (T47D): 99%
Percent Inhibition (A498): 100%
Percent Inhibition (HCC1569): 99%
Percent Inhibition (NCI-H1770): 100%
Percent Inhibition (TCCSUP): 100%
Percent Inhibition (NCI-H1694): 100%
Percent Inhibition (Panc 03.27): 99%
Percent Inhibition (CW-2): 99%
Percent Inhibition (Colo 205): 99%
